Experimental data published in patent US9988397B2, “ERK inhibitors” (Merck Sharp & Dohme Corp., priority 2014, dated 2018).
pIC50: −log10 of the molar value.

Biological target: phosphorylated active hERK2 enzyme (Homo sapiens, UniProt P28482)
Assay: Active human ERK2 (hERK2) Activity Assay (IMAP-FP)
Assay type: biochemical
Details: 10 point titration, 3 μM starting concentration, 0.5 nM hERK2, 30 μM ATP, 60 minutes reaction
Description: Activated ERK2 activity was determined in an IMAP-FP assay (Molecular Devices). Using this assay format, the potency (IC50) of each compound was determined from a 10 point (1:3 serial dilution, 3 μM starting compound concentration) titration curve using the following outlined procedure. […] Following a 15 minute compound & enzyme incubation, each reaction was initiated by the addition of 10 μL kinase buffer containing 2.45 μM ERK2 IMAP substrate peptides and 75 μM ATP. The final reaction in each well of 25 μL consists of 0.5 nM hERK2, 900 nM unlabeled peptide, 80 nM labeled-peptide, and 30 μM ATP. Phosphorylation reactions were allowed to proceed for 60 minutes and were immediately quenched by the addition of 60 μL IMAP detection beads (1:1000 dilutions) in IMAP binding buffer (Molecular Devices) with 24 mM NaCl. Plates were read on EnVision reader after 60 minutes binding equilibration using Fluorescence Polarization protocol (Perkin Elmer).

Chain of phosphorylated active hERK2 enzyme (P28482 whole entry): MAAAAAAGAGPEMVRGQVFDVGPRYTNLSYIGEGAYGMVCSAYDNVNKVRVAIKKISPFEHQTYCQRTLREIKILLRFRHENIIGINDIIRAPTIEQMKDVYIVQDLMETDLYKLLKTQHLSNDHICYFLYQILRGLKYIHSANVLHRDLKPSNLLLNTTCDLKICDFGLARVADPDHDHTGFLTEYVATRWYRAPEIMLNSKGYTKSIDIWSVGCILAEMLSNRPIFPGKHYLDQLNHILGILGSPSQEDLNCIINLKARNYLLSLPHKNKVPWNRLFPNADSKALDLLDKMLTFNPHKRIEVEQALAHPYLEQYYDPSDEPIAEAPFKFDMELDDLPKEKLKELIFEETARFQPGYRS

pIC50 | Structure (SMILES)
7.06 | Cc1cc(-n2ncc3cc4nc(c32)Cn2cc(nn2)CC(c2ccccc2)NC(=O)N4)ccn1 (single isomer, unassigned) [Example 38, 1-(2-Methylpyridin-4-yl)-9-phenyl-1,6,9,10-tetrahydro-5,16-(azeno)-14,11-(metheno)pyrazolo[4,3-l][1,2,3,7,9]pentaazacyclopentadecin-7(8H,15H)-one]
6.63 | Cc1cc(-n2ncc3cc4nc(c32)Cn2cc(nn2)CC(c2ccccc2)NC(=O)N4)ccn1 (single isomer, unassigned) [Example 39, 1-(2-Methylpyridin-4-yl)-9-phenyl-1,6,9,10-tetrahydro-5,16-(azeno)-14,11-(metheno)pyrazolo[4,3-l][1,2,3,7,9]pentaazacyclopentadecin-7(8H,15H)-one]
7.48 | CCn1ncc2cc3nc(c21)C[C@@H](OC)COC[C@@H](c1ccccc1)NC(=O)N3 (stereo in doubt) [Example 44, (9R,13R)-1-Ethyl-13-methoxy-9-phenyl-1,6,9,10,13,14-hexahydro-12H-5,15-(azeno)pyrazolo[4,3-i][1,4,6]oxadiazacyclotetradecin-7(8H)-one]
7.80 | CCn1ncc2cc3nc(c21)NCCCCC(c1ccccc1)NC(=O)N3 (centres unmarked) [Example 18, 1-Ethyl-9-phenyl-1,6,9,10,11,12,13,14-octahydro-5,15-(azeno)pyrazolo[4,3-f][1,3,9]triazacyclotetradecin-7(8H)-one]
8.03 | Cn1ncc2cc3nc(c21)NCCCC[C@H](c1ccccc1)NC(=O)N3 [Example 19, (9R)-1-Methyl-9-phenyl-1,6,9,10,11,12,13,14-octahydro-5,15-(azeno)pyrazolo[4,3-f][1,3,9]triazacyclotetradecin-7(8 H)-one]
7.07 | CN1CCCCC(c2ccccc2)NC(=O)Nc2cc3cnn(C)c3c1n2 (centres unmarked) [Example 20, 1,14-Dimethyl-9-phenyl-1,6,9,10,11,12,13,14-octahydro-5,15-(azeno)pyrazolo[4,3-f][1,3,9]triazacyclotetradecin-7(8H)-one]
8.30 | CCn1ncc2cc3nc(c21)NCCOC[C@H](c1ccccc1)NC(=O)N3 [Example 21, (9S)-1-Ethyl-9-phenyl-1,6,9,10,13,14-hexahydro-12H-5,15-(azeno)pyrazolo[4,3-i][1,4,6,12]oxatriazacyclotetradecin-7(8H)-one]
8.10 | Cn1ncc2cc3nc(c21)NCCOC[C@H](c1ccccc1)NC(=O)N3 [Example 22, (9 S)-1-Methyl-9-phenyl-1,6,9,10,13,14-hexahydro-12H-5,15-(azeno)pyrazolo[4,3-i][1,4,6,12]oxatriazacyclotetradecin-7(8 H)-one]
7.35 | Cn1ncc2cc3nc(c21)OCCC[C@H](O)[C@H](c1ccccc1)NC(=O)N3 [Example 23, (9S,10S)-10-Hydroxy-1-methyl-9-phenyl-1,6,8,9,10,11,12,13-octahydro-7H-5,15-(azeno)pyrazolo[3,4-c][1,7,9]oxadiazacyclotetradecin-7-one]

The next lines start with the molecule.

Structure (SMILES) | pIC50
CCn1ncc2cc3nc(c21)CCCOC[C@H](c1ccccc1)NC(=O)N3 [Example 1, (9S)-1-Ethyl-9-phenyl-1,6,9,10,13,14-hexahydro-12H-5,15-(azeno)pyrazolo[4,3-i][1,4,6]oxadiazacyclotetradecin-7(8H)-one] | 8.06
Cn1ncc2cc3nc(c21)CCCOC[C@H](c1ccccc1)NC(=O)N3 [Example 2, (9S)-1-Methyl-9-phenyl-1,6,9,10,13,14-hexahydro-12H-5,15-(azeno)pyrazolo[4,3-i][1,4,6]oxadiazacyclotetradecin-7(8H)-one] | 7.99
CCn1ncc2cc3nc(c21)CC(C)(O)COC[C@H](c1ccccc1)NC(=O)N3 (stereo partly drawn) [Example 5, (9S)-1-Ethyl-13-hydroxy-13-methyl-9-phenyl-1,6,9,10,13,14-hexahydro-12H-5,15-(azeno)pyrazolo[4,3-i][1,4,6]oxadiazacyclotetradecin-7(8H)-one] | 6.94
CCn1ncc2cc3nc(c21)[C@@H]1C[C@@H]1COC[C@H](c1ccccc1)NC(=O)N3 [Example 7, (9S,12aS,13 aR)-1-Ethyl-9-phenyl-1,6,9,10,12,12a,13,13a-octahydro-5,14-(azeno)cyclopropa[l]pyrazolo[4,3-i][1,4,6]oxadiazacyclotetradecin-7(8H)-one] | 7.94
CCn1ncc2cc3nc(c21)[C@H]1C[C@H]1COC[C@H](c1ccccc1)NC(=O)N3 [Example 8, (9S,12aR,13aS)-1-Ethyl-9-phenyl-1,6,9,10,12,12a,13,13a-octahydro-5,14-(azeno)cyclopropa[1]pyrazolo[4,3-i][1,4,6]oxadiazacyclotetradecin-7(8H)-one] | 7.30
O=C1Nc2cc3cnn(C(F)F)c3c(n2)CCCOC[C@H](c2ccccc2)N1 [Example 9, (9S)-1-(Difluoromethyl)-9-phenyl-1,6,9,10,13,14-hexahydro-12H-5,15-(azeno)pyrazolo[4,3-i][1,4,6]oxadiazacyclotetradecin-7(8H)-one] | 7.90
O=C1Nc2cc3cnn(C(F)F)c3c(n2)/C=C\COC[C@H](c2ccccc2)N1 [Example 10, (9S,13Z)-1-(Difluoromethyl)-9-phenyl-1,6,9,10-tetrahydro-12H-5,15-(azeno)pyrazolo[4,3-i][1,4,6]oxadiazacyclotetradecin-7(8H)-one] | 8.38
CCn1ncc2cc3nc(c21)CCCOC(C)(C)[C@H](c1ccccc1)NC(=O)N3 [Example 11, (9S)-1-Ethyl-10, 10-dimethyl-9-phenyl-1,6,9,10,13,14-hexahydro-12H-5,15-(azeno)pyrazolo [4,3-i][1,4,6]oxadiazacyclotetradecin-7(8H)-one] | 7.79
CCn1ncc2cc3nc(c21)CCCOC(C)(C)[C@@H](c1ccccc1)NC(=O)N3 [Example 12, (9R)-1-Ethyl-10,10-dimethyl-9-phenyl-1,6,9,10,13,14-hexahydro-12H-5,15-(azeno)pyrazolo[4,3-i][1,4,6]oxadiazacyclotetradecin-7(8H)-one] | 6.13
CCn1ncc2cc3nc(c21)CCCO[C@@H](CO)[C@@H](c1ccccc1)NC(=O)N3 [Example 13, (9R,10R)-1-Ethyl-10-(hydroxymethyl)-9-phenyl-1,6,9,10,13,14-hexahydro-12H-5,15-(azeno)pyrazolo[4,3-i][1,4,6]oxadiazacyclotetradecin-7(8H)-one] | 6.12
CCn1ncc2cc3nc(c21)CCCO[C@H](CO)[C@H](c1ccccc1)NC(=O)N3 [Example 14, (9S,10S)-1-Ethyl-10-(hydroxymethyl)-9-phenyl-1,6,9,10,13,14-hexahydro-12H-5,15-(azeno)pyrazolo[4,3-i][1,4,6]oxadiazacyclotetradecin-7(8H)-one] | 8.46
CN1CCCc2nc(cc3cnn(C)c23)NC(=O)N[C@@H](c2ccccc2)C1 [Example 15, (9S)-1,11-Dimethyl-9-phenyl-1,6,9,10,11,12,13,14-octahydro-5,15-(azeno)pyrazolo[3,4-k][1,3,6]triazacyclotetradecin-7(8H)-one] | 7.25
CCn1ncc2cc3nc(c21)OCCCCC(c1ccccc1)NC(=O)N3 (centres unmarked) [Example 16, 1-Ethyl-9-phenyl-1,6,8,9,10,11,12,13-octahydro-7H-5,15-(azeno)pyrazolo [3,4-c][1,7,9]oxadiazacyclotetradecin-7-one] | 7.07
Cn1ncc2cc3nc(c21)OCCCC[C@H](c1ccccc1)NC(=O)N3 [Example 17, (9R)-1-Methyl-9-phenyl-1,6,8,9,10,11,12,13-octahydro-7H-5,15-(azeno)pyrazolo [3,4-c][1,7,9]oxadiazacyclotetradecin-7-one] | 7.23
